Source: patent US7414107B2, “Pharmacologically active peptide conjugates having a reduced tendency towards enzymatic hydrolysis” (priority 1998, dated 2008)
Where a SMILES comes first, the peptide text is derived from it. Where no end group is shown, it is not given here. [ ]: non-standard residue; d: D form. Dap = NC[C@H](N)C(=O)O

Legend:
leucine aminopeptidase = molecular target: T1, leucine aminopeptidase (Sus scrofa, UniProt P28839); experiment: Hydrolysis kinetics in leucine aminopeptidase solution; format: in vitro ADME, porcine; details: 50 mM phosphate buffer pH 7.4, 37° C., leucine aminopeptidase 25 U/ml; for half-life: pig
T1 construct: purchased Sigma, UK type III-CP (catalogue number not given); host or cells: porcine kidney
T1 sequence (P28839 1-519): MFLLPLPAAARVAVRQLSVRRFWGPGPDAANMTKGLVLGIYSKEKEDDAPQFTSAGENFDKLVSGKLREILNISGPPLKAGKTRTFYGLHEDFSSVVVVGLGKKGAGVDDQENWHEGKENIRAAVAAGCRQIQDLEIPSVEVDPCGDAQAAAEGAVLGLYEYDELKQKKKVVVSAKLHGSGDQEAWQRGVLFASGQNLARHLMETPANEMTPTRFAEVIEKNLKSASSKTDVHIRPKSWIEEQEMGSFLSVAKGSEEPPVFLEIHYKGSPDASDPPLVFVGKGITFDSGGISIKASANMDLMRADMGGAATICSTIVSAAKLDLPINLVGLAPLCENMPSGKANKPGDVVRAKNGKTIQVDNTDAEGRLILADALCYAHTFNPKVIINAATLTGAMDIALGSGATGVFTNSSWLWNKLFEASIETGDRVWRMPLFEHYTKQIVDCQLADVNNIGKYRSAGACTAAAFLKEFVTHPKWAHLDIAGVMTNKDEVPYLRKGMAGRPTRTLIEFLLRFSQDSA
How it was run: (§1)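 Peptide conjugate or native peptide at ~0.1 mg/ml final (10^−5-10^−4M) incubated at 37° C in 50 mM phosphate pH 7.4 with leucine aminopeptidase (25 U/ml) or carboxypeptidase A (1 or 25 U/ml). Timed samples quenched with TFA/acetonitrile and quantified by RP-HPLC at 215 nm. t1/2 = ln2/kobs from first-order log plots.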

vas deferens = details: read-out: EC50 value; half maximal inhibition of electrically-induced contraction, mouse vas deferens
Description: (§2) In short: vasa deferentia were isolated from male mice weighing 20-30 g (Mellegaard breeding, DK) and suspended through two electrodes in 10 ml baths at resting tension of 1 g. […] The tissues were stimulated electrically (70 V, 1 ms duration; 0.1 Hz) and contractions were recorded isometrically on a chart recorder. After equilibration of the tissue for at least 20 min, drugs were added in the bath and the maximum effects were measured.
(§3) Prior to addition of the plasma sample, a standard dose-response curve was generated in each preparation in order to express the inhibitory activity as concentration of each test substance. Thus, the calculated concentration is a reflection of inhibitory activity in the vas deferens bioassay preparation.
(§4) Where initial=initial […] contraction force prior to addition of test substance; conc=concentration of test substance; EC50=concentration of test substance that […] produced half maximal inhibition of electrically-induced contraction; background=contraction force during maximal relaxation.

[1] = Stability in mouse plasma at 37° C. (vas deferens bioassay readout)
Excerpt: as §3, §4
All enkephalin analogues were dissolved in Krebs buffer in a concentration of 1 mM. Sixty-six μl of each test substance solution (66 nmol enkephalin analog) was incubated with 600 μl plasma at 37° C. […] Functional activity of each test substance in plasma was expressed as the concentration of the test substance that elicited the same inhibition of electrically-induced contraction in the vas deferens bioassay. T1/2 was calculated by fitting the time-concentration data to the equation: conc(t)=conc(0)·e^(−ln2/T1/2)·t where conc(0)=concentration at t=0.

carboxypeptidase A = molecular target: T2, carboxypeptidase A (Bos taurus, UniProt P00730); experiment: Hydrolysis kinetics in carboxypeptidase A solution; format: in vitro ADME, bovine; details: 50 mM phosphate buffer pH 7.4, 37° C., carboxypeptidase A 1 U/ml
T2 construct: purchased Sigma, UK type I (catalogue number not given); host or cells: bovine pancreas
T2 sequence (P00730 111-419): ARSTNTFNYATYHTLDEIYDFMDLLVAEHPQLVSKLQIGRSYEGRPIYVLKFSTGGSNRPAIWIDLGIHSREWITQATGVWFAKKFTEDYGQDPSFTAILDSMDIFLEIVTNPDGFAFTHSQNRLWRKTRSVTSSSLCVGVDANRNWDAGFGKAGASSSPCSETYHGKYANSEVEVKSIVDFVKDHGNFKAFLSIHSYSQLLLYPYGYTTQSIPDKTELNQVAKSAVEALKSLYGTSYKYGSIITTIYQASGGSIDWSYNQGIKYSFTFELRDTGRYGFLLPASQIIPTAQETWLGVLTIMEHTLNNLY
How it was run: as §1

PTH (1-34)-antibody = details: EIAS(h)-6101 from Peninsula Laboratories; cited from earlier work
osteoblast = experiment: Osteoblast retraction assay; format: cell-based, mice
Description: Retraction assays were performed with osteoblast prepared from calvaria of 1-day old mice according to published protocols (Miller et al., 1976, Science 192:1340-1343). In brief, osteoblasts were seeded in serum-free minimal essential medium-α (αMEM) at a density of 3000 cells per cm^2 into 96-well tissue culture plates coated with 50 μg/ml of type I collagen in phosphate-buffered saline containing 0.1% bovine serum albumin (PBS). One day after plating, PTH compounds were added to a final concentration of 10 nM and incubation was carried out for 1 h. Cells were then fixed and stained with toluidine blue, and the number of retracted cells was counted by visual inspection.

guinea pig illeum = details: agonist, induced contraction, illeum not electrically stimulated
Description: Following application of the compounds the induced contraction was measured.

[2] = Bioavailability in mice: functional activity in serum after p.o. or i.v. dosing (vas deferens bioassay)
Description: Blood samples were centrifuged immediately (3000 g, 4° C.) and serum was isolated and used for activity determination.
as §2

CC(C)C[C@H](NC(=O)[C@H](Cc1ccccc1)NC(=O)CNC(=O)CNC(=O)[C@@H](N)Cc1ccc(O)cc1)C(=O)N[C@@H](CN)C(=O)N[C@@H](CN)C(=O)N[C@@H](CN)C(=O)N[C@@H](CN)C(=O)N[C@@H](CN)C(=O)N[C@@H](CN)C(=O)O [Leu-Enkephalin-(Dpr)6-OH, H-Tyr-Gly-Gly-Phe-Leu-(Dpr)6-OH] (H-YGGFL[Dap][Dap][Dap][Dap][Dap][Dap]-OH)
pseudo first-order rate constant for the degradation (leucine aminopeptidase): 0.17 min⁻¹ | half-life (leucine aminopeptidase): 4.2 min | EC50 (vas deferens): 200 nM | half-life at 99 µM ([1]; plasma): 19.8 min | half-life (carboxypeptidase A): 29 min | pseudo first-order rate constant for the degradation (carboxypeptidase A): 0.024 min⁻¹

CC[C@H](C)[C@H](NC(=O)[C@H](CCC(=O)O)NC(=O)[C@H](CO)NC(=O)[C@@H](NC(=O)[C@@H](N)CO)C(C)C)C(=O)N[C@@H](CCC(N)=O)C(=O)N[C@@H](CC(C)C)C(=O)N[C@@H](CCSC)C(=O)N[C@@H](Cc1c[nH]cn1)C(=O)N[C@@H](CC(N)=O)C(=O)N[C@@H](CC(C)C)C(=O)NCC(=O)N[C@@H](CCCCN)C(=O)N[C@@H](Cc1c[nH]cn1)C(=O)N[C@@H](CC(C)C)C(=O)N[C@@H](CC(N)=O)C(=O)N[C@@H](CO)C(=O)N[C@@H](CCSC)C(=O)N[C@@H](CCC(=O)O)C(=O)N[C@@H](CCCNC(=N)N)C(=O)N[C@H](C(=O)N[C@@H](CCC(=O)O)C(=O)N[C@@H](Cc1c[nH]c2ccccc12)C(=O)N[C@@H](CC(C)C)C(=O)N[C@@H](CCCNC(=N)N)C(=O)N[C@@H](CCCCN)C(=O)N[C@@H](CCCCN)C(=O)N[C@@H](CC(C)C)C(=O)N[C@@H](CCC(N)=O)C(=O)N[C@@H](CC(=O)O)C(=O)N[C@H](C(=O)N[C@@H](Cc1c[nH]cn1)C(=O)N[C@@H](CC(N)=O)C(=O)N[C@@H](Cc1ccccc1)C(=O)O)C(C)C)C(C)C [PTH(1-34)(Human)-OH, H-Ser-Val-Ser-Glu-Ile-Gln-Leu-Met-His-Asn-Leu-Gly-Lys -His-Leu-Asn-Ser-Met-Glu-Arg-Val-Glu-Trp-Leu-Arg-Lys-Lys-Leu-Gln-Asp-Val-His -Asn-Phe-OH, reference compound]
Specificity of the assay (PTH (1-34)-antibody): 100% | Retraction assay % Retracted cells (osteoblast; 10 nM, 1 h, mouse calvaria osteoblasts): 58.2% | activity relative to native, human parathyroid hormone (osteoblast; Osteoblast retraction assay): approximately 89% | pseudo first-order rate constant for the degradation (leucine aminopeptidase): 0.0021 min⁻¹ | half-life (leucine aminopeptidase): 330 min | half-life (carboxypeptidase A): 0.13 min | pseudo first-order rate constant for the degradation (carboxypeptidase A): 5.2 min⁻¹

CSCC[C@H](NC(=O)[C@H](CC(C)C)NC(=O)CNC(=O)[C@H](Cc1ccccc1)NC(=O)[C@H](Cc1ccccc1)NC(=O)[C@H](CCC(N)=O)NC(=O)[C@H](CCC(N)=O)NC(=O)[C@@H]1CCCN1C(=O)[C@H](CCCCN)NC(=O)[C@@H]1CCCN1C(=O)[C@@H](N)CCCNC(=N)N)C(N)=O [Substance P-NH2, H-Arg-Pro-Lys-Pro-Gln-Gln-Phe-Phe-Gly-Leu-Met-NH2, reference compound]
EC50 (guinea pig illeum): 40 nM | pseudo first-order rate constant for the degradation (leucine aminopeptidase): 0.045 min⁻¹ | half-life (leucine aminopeptidase): 16 min | half-life (carboxypeptidase A): 35 min | pseudo first-order rate constant for the degradation (carboxypeptidase A): 0.02 min⁻¹

H-KKKKKKRPKPQQFFGLM-NH2 [(Lys)6-Substance P-NH2, H-(Lys)6 Arg-Pro-Lys-Pro-Gln-Gln-Phe-Phe-Gly-Leu -Met-NH2]
EC50 (guinea pig illeum): 5 nM | pseudo first-order rate constant for the degradation (leucine aminopeptidase): 0.002 min⁻¹ | half-life (leucine aminopeptidase): 347 min

H-YGGFLKEEEEK-OH [Leu-Enkephalin-(Lys-Glu4-Lys)-OH, H-Tyr-Gly-Gly-Phe-Leu-Lys-Glu-Glu-Glu-Glu-Lys--OH]
pseudo first-order rate constant for the degradation (leucine aminopeptidase): 0.065 min⁻¹ | half-life (leucine aminopeptidase): 11 min | EC50 (vas deferens): 357 nM | half-life at 99 µM ([1]; mouse plasma): 84.5 min | half-life (carboxypeptidase A): 1160 min | pseudo first-order rate constant for the degradation (carboxypeptidase A): 0.0006 min⁻¹

YGGFLEEEEEE [Leu-Enkephalin-(Glu)6-OH, H-Tyr-Gly-Gly-Phe-Leu-Glu6-OH]
solubility (Solubility (remark)): very low solubility | EC50 (vas deferens): 140 nM

YGGFLKKKKKK [Leu-Enkephalin-(Lys)6-OH, H-Tyr-Gly-Gly-Phe-Leu-Lys6-OH]
Functional activity in serum ([2]; 50 mg/kg i.v., 5 min): 15.9 ± 2.4 µM | Functional activity in serum ([2]; 50 mg/kg i.v., 15 min): 8.5 ± 1.2 µM | Functional activity in serum ([2]; 50 mg/kg i.v., 30 min): 6 ± 0.95 µM | Functional activity in serum ([2]; 50 mg/kg i.v., 60 min): 1.6 ± 0.34 µM | Functional activity in serum ([2]; 50 mg/kg i.v., 180 min): 0.44 ± 0.11 µM | Functional activity in serum ([2]; 50 mg/kg i.v., 240 min): 2.5 ± 0.32 µM | Functional activity in serum ([2]; 50 mg/kg i.v., 370 min): 31.2 ± 8.62 µM | Functional activity in serum ([2]; 50 mg/kg i.v., 720 min): <Detection Limit | Functional activity in serum ([2]; 50 mg/kg i.v., 1080 min): <Detection Limit | Functional activity in serum ([2]; 50 mg/kg i.v., 1440 min): <Detection Limit | time at which activity in serum reached a maximum ([2]; 50 mg/kg p.o.): 90 to 240 min | Functional activity in serum ([2]; 50 mg/kg p.o., 0 min): 0 µM | Functional activity in serum ([2]; 50 mg/kg p.o., 15 min): <Detection Limit | Functional activity in serum ([2]; 50 mg/kg p.o., 30 min): 3 ± 0.8 µM | Functional activity in serum ([2]; 50 mg/kg p.o., 60 min): 6 ± 1.3 µM | Functional activity in serum ([2]; 50 mg/kg p.o., 90 min): 10.9 ± 3.8 µM | Functional activity in serum ([2]; 50 mg/kg p.o., 240 min): 10.7 ± 0.23 µM | Functional activity in serum ([2]; 50 mg/kg p.o., 480 min): 5 ± 0.58 µM | Functional activity in serum ([2]; 50 mg/kg p.o., 960 min): 2.8 ± 0.78 µM | Functional activity in serum ([2]; 50 mg/kg p.o., 1380 min): <Detection Limit | pseudo first-order rate constant for the degradation (leucine aminopeptidase): 0.0097 min⁻¹ | half-life (leucine aminopeptidase): 72 min | EC50 (vas deferens): 160 nM | half-life at 99 µM ([1]; plasma): 18.7 min | pseudo first-order rate constant for the degradation (carboxypeptidase A): 0.0007 min⁻¹ | half-life (carboxypeptidase A; cattle, carboxypeptidase A solution (1 U/ml) in phosphate buffer): 990 min
